Source: ChEMBL document CHEMBL1201862, “PubChem BioAssay data set” (2004)
The source made the active and inactive calls.

Legend:
[1] = target: Photoreceptor-specific nuclear receptor (Homo sapiens, UniProt Q9Y5X4); type: functional, cell-based;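 further: CHO-S cells with Gal4-NCOR and VP16-NR2E3 two-hybrid luciferase reporter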
[2] = Shn3 3'UTR reporter inhibitors, dose response, cell-based, Clone20 osteoblasts, firefly luciferase, cherry-picked (AID 624132); type: functional;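 further: firefly luciferase luminescence from reporter carrying the Shn3 3'UTR in osteoblasts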
[3] = HepG2 cell cytotoxicity, dose response, cytotoxicity control for Shn3 inhibitor project, CellTiter-Glo, cherry-picked (AID 624134); type: functional, cell-based
[4] = control 3'UTR Renilla luciferase suppression, dose response, counter-screen for Shn3 inhibitor project, cell-based, Clone20-Shn3RL, cherry-picked (AID 624133); type: functional
[5] = tested on: P388/ADR; experiment: cells; type: functional; settings: Mus musculus
[6] = tested on: SN12K1; experiment: cells; type: functional; settings: Homo sapiens
[7] = tested on: P388; experiment: cells; type: functional; settings: Mus musculus
[8] = target: Melanocortin receptor 4 (Homo sapiens, UniProt P32245); type: functional, cell-based;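 further: Cell-based assay with luminescence read-out, confirmatory dose-response testing for agonist activity of biased ligands at MC4R; human U2OS cells with tagged receptor and beta-arrestin; potency of agonists that increase receptor coupling to beta-arrestin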
[9] = human group III sPLA2 inhibitors, dose response, biochemical, QFRET, IC50 (AID 743457);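 further: green fluorescence rise as the enzyme cleaves BODIPY PC-A2 in liposomes; potency for inhibition of the enzyme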
[10] = target: T1, Leucine aminopeptidase (Plasmodium falciparum 3D7, UniProt Q8IL11); experiment: P. falciparum M17LAP inhibitors, primary screen, biochemical, fluorogenic H-Leu-NHMec substrate, 1536-well (AID 1619); type: functional
T1 sequence (Q8IL11 whole entry): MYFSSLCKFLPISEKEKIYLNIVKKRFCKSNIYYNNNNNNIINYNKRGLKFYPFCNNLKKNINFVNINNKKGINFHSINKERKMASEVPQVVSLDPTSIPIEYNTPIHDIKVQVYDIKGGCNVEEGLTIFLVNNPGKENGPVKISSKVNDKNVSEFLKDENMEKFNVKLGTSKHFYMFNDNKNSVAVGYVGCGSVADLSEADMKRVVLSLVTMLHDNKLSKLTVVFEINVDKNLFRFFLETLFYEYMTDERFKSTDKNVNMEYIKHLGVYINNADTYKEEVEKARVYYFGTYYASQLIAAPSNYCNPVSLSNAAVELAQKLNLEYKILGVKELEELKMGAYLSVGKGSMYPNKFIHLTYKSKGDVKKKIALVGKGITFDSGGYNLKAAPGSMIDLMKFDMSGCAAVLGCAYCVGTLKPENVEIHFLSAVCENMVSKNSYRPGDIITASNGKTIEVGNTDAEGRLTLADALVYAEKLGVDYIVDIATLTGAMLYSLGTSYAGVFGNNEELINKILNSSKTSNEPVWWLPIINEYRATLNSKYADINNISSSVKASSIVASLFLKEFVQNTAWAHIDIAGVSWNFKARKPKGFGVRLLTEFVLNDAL

[11] = target: T2, Low molecular weight phosphotyrosine protein phosphatase (Homo sapiens, UniProt P24666); type: functional; settings: read-out: IC50_Mean;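 further: Dose-response confirmation assay measuring inhibition of LMPTP enzyme activity by fluorescence intensity read-out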
T2 sequence (P24666 whole entry): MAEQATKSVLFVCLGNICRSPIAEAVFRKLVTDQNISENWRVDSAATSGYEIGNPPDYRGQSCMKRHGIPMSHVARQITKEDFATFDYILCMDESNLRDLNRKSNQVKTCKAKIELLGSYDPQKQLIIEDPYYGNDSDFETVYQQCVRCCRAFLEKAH

[12] = target: T3, Apoptotic protease-activating factor 1 (Homo sapiens, UniProt O14727); type: functional
T3 sequence (O14727 whole entry): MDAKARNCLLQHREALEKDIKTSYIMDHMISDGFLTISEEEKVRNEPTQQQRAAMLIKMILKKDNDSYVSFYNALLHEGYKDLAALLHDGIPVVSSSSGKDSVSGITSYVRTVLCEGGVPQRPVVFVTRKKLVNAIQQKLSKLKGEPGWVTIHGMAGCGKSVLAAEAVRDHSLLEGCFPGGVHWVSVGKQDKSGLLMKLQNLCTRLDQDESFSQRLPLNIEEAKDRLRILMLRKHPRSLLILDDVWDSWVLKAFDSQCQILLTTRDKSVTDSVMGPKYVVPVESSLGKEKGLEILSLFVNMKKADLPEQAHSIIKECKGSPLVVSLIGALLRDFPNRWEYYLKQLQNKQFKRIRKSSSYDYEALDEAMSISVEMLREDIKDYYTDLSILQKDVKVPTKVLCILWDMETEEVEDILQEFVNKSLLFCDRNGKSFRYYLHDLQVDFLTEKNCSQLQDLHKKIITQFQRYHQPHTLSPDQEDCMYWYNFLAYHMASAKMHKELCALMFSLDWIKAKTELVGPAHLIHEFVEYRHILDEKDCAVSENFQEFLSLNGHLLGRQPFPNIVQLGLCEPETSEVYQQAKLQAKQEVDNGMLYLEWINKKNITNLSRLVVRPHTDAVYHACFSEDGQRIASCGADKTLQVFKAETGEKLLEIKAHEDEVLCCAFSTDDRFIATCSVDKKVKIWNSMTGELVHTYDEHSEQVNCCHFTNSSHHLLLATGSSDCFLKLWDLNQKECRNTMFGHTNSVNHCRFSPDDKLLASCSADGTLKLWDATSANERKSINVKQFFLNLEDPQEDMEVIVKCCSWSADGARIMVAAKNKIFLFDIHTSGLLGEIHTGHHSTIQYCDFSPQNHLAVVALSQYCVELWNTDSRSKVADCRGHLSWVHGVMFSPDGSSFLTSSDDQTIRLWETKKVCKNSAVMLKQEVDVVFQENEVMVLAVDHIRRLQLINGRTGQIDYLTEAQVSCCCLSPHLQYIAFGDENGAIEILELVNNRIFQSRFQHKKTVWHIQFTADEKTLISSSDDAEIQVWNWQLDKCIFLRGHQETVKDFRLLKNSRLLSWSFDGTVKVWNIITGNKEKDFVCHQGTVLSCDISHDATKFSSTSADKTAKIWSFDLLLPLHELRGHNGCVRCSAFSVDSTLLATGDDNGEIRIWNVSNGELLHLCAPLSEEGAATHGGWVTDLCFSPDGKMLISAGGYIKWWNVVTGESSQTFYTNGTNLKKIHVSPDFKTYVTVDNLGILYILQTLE

[13] = target: T4, Bcl-2-related protein A1 (Mus musculus, UniProt Q07440); type: functional;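 further: confirmatory dose–response counterscreen on Bfl-1, used to check hits from a UBC13 polyubiquitin inhibitor campaign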
T4 sequence (Q07440 whole entry): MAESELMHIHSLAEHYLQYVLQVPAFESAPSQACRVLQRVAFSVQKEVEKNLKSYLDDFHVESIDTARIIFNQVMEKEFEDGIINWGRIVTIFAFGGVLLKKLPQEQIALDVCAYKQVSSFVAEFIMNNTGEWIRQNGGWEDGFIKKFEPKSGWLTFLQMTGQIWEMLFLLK

[14] = target: T5, Ubiquitin-conjugating enzyme E2 N (Homo sapiens, UniProt P61088); type: functional
T5 sequence (P61088 whole entry): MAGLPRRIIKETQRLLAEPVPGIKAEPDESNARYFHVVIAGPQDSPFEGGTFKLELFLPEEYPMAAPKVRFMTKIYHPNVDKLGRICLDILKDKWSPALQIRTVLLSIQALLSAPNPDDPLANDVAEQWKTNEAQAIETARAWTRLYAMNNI

[15] = target: T5, Ubiquitin-conjugating enzyme E2 N; type: functional; remark: listed apart in the source
[16] = target: T6, Protein RecA (Mycobacterium tuberculosis, UniProt P9WHJ3); experiment: Fluorescence Cell-Free Homogeneous Dose Retest to Identify Inhibitors of RecA-Intein Splicing Activity. [Related pubchem assays (depositor defined):AID2097, AID2223, AID489010, AID492950]; type: functional
T6 sequence (P9WHJ3 whole entry): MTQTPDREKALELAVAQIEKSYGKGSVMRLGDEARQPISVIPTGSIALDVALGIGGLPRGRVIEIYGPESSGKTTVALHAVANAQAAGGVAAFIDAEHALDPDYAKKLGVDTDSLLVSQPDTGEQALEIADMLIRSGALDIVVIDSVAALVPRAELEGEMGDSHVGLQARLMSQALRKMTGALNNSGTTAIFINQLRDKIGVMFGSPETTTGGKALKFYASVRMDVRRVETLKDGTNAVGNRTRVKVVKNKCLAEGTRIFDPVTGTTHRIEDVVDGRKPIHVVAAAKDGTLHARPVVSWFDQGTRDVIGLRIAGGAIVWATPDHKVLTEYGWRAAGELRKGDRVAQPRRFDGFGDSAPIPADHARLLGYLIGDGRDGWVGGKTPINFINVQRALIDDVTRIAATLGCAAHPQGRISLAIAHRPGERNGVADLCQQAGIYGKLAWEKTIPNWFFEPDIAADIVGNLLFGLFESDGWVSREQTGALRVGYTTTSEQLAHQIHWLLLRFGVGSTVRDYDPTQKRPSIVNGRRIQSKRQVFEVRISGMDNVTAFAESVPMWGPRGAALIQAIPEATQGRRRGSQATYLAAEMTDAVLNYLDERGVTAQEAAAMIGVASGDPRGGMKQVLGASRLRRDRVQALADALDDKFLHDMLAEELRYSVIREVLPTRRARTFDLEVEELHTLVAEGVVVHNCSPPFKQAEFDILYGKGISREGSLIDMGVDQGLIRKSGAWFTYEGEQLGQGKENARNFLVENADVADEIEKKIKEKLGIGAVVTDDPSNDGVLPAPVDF

[17] = target: T7, Replicative DNA helicase DnaB (Mycobacterium tuberculosis, UniProt P9WMR3); experiment: DnaB intein splicing inhibitors, dose response, biochemical, cell-free fluorescence (AID 449749); type: functional
T7 sequence (P9WMR3 whole entry): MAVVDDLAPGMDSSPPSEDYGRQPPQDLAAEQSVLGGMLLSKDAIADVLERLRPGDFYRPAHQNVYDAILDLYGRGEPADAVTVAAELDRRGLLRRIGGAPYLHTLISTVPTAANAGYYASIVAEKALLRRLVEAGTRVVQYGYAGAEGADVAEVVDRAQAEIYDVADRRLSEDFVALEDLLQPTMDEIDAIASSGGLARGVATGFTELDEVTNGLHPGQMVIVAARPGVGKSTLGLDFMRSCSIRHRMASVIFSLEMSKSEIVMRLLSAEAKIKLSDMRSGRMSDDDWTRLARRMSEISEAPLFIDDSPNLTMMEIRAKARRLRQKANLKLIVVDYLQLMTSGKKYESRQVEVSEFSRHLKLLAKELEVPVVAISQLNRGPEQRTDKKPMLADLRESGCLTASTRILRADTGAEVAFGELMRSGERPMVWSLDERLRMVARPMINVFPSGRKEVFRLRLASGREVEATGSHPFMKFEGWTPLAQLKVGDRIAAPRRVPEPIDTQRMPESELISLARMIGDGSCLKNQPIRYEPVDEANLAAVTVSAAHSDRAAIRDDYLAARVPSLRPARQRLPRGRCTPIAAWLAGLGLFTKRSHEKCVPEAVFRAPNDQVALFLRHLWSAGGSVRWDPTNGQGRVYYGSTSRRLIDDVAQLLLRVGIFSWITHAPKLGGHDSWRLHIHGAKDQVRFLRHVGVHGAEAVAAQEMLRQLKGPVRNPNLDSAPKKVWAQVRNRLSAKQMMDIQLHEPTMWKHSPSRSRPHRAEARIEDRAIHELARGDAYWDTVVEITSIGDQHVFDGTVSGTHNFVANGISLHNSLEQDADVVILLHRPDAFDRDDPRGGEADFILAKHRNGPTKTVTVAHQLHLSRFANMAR

[18] = Fluorescence-based cell-based high throughput dose response assay for inhibitors of the interaction of nucleotide-binding oligomerization domain containing 2 (NOD2) and the receptor-interacting serine-threonine kinase 2 (RIPK2).; type: functional; settings: Homo sapiens
[19] = cells; type: functional, cell-based
[20] = cells; type: functional, cell-based; remark: listed apart in the source

Sequence of Melanocortin receptor 4 (P32245 whole entry): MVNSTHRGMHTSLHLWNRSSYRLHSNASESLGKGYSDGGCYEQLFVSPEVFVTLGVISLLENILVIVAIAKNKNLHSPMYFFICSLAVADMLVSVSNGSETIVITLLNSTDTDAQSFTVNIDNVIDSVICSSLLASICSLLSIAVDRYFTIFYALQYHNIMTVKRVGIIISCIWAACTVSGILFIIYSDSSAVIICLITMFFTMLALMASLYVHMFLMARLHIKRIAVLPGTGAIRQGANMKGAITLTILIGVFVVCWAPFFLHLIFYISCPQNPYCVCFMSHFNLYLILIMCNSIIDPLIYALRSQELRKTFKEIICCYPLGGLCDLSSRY
Sequence of Photoreceptor-specific nuclear receptor (Q9Y5X4 whole entry, the tested form may be a part): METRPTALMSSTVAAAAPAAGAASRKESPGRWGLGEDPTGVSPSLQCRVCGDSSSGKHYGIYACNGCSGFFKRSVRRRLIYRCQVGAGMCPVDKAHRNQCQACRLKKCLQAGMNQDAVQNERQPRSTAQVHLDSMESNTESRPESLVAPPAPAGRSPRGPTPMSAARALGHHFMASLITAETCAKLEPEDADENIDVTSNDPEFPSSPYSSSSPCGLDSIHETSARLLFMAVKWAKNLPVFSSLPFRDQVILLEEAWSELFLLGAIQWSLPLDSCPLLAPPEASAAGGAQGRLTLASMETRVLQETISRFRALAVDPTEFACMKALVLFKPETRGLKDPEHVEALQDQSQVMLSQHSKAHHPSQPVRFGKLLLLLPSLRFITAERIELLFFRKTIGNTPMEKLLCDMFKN

With `CN(CC(=O)Nc1ccccc1Cl)C(=O)c1cccc(S(=O)(=O)N2CCN(c3ccc(F)cc3)CC2)c1` the IC50 [1] was 8.34 µM (active), the AC50 [2] was 3.62 µM (active) and the AC50 [3] was > 70 µM (inactive). For the same compound, the AC50 [4] was 3.53 µM (active).
In the case of `CC(=O)c1c(C)[nH]c(C(=O)OCC(=O)c2ccc(Br)cc2)c1C`, the IC50 [1] is reported as 3.35 µM (active).
For `COc1ccc2nc3ccccc3c(NCCN(C)CCCl)c2c1`, the GI50 [5] was 0.424 µM (active), the GI50 [6] was 0.684 µM (active) and the GI50 [7] was 0.256 µM (active).
In the case of `CC(=O)Nc1cc(-c2cccnc2)cn2c(-c3cccc(C(F)(F)F)c3)cnc12`, the EC50 [8] is reported as 84.1 µM (inactive).
In the case of `Cc1csc(NC(=S)NC(=O)c2ccccc2)n1`, the IC50 [9] is reported as > 122 µM (inactive).
With `Nc1ccn(C2OC(COP(=O)(O)Oc3ccccc3)C(O)C2O)c(=O)n1` (centres undefined) the GI50 [5] was 0.675 µM (active), the GI50 [6] was 5.56 µM (inactive) and the GI50 [7] was 0.264 µM (active).
In the case of `CN1C(=O)c2ccccc2NC(=O)c2cnn(C)c21`, the GI50 [5] is reported as > 100 µM (inactive), the GI50 [6] is reported as > 100 µM (inactive) and the GI50 [7] is reported as > 100 µM (inactive).
With `C/C(=C\c1ccco1)C1C(C#N)=C(N)Oc2[nH]nc(-c3ccc(C)cc3)c21` (centres undefined) the IC50 [10] was 132 µM (active) and the EC50 [8] was > 89.2 µM (inactive).
In the case of `CCn1cc(C(=O)O)c(=O)c2cc(F)c(N3CCN(C(=S)NC(=O)c4ccccc4Cl)CC3)cc21`, the IC50 [11] is reported as 5.84 µM (active).
With `COC1=CC(=O)c2c(c(O)c3oc4cc(OC)cc(C)c4c(=O)c3c2O)C1=O` [BIKAVERIN] the GI50 [5] was 1.04 µM (active), the GI50 [6] was 0.422 µM (active) and the GI50 [7] was 0.695 µM (active).
For `CN(Cc1ccc(Cl)c(Cl)c1)C(=O)c1cccc(S(=O)(=O)N2CCN(Cc3ccccc3)CC2)c1`, the AC50 [2] was 3.47 µM (active), the AC50 [3] was > 70 µM (inactive) and the IC50 [12] was 42.7 µM (active). For the same compound, the IC50 [13] was > 20 µM (inactive), the IC50 [14] was 18.4 µM (active) and the AC50 [4] was 7.2 µM (active). The IC50 [15] was 12.5 µM (active).
In the case of `CC(=O)N(C1=C(N2CCOCC2)C(=O)c2ccccc2C1=O)c1ccc(C(=O)O)cc1`, the EC50 [16] is reported as 1.01 µM (active), the AC50 [17] is reported as 16.7 µM (active) and the IC50 [12] is reported as 26.2 µM (active).
With `CN(C)CCC(=O)C(Cc1ccccc1)c1ccccc1` (centres undefined) the IC50 [18] was 4.6 µM (active), the IC50 [13] was > 20 µM (inactive) and the IC50 [14] was 13.3 µM (active). For the same compound, the IC50 [15] was > 20 µM (inactive).
For `Cc1nnc(C)c2c(C)n(-c3ccc4ncccc4c3)c(C)c12`, the IC50 [11] was 45.2 µM (inactive).
With `CC1OC(NCCc2ccccc2)C(O)C(O)C1O` (centres undefined) the IC50 [19] was > 29.9 µM (inactive) and the EC50 [20] was > 29.9 µM (inactive).
